Experimental data from patent US12590066B2, “Fused-heterocyclyl-carbonohydrazonoyl dicyanide compounds and use thereof” (KOREA INSTITUTE OF SCIENCE AND TECHNOLOGY, priority 2020, dated 2026).

Legend:
[1] = Liver microsome stability; format: in vitro ADME; conditions: 1 μM compound, 37° C., 30 minutes, NADPH; for Dog (%) amount of substrate remaining after the reaction: dog liver microsomes 0.25 mg/mL; for Human (%) amount of substrate remaining after the reaction: human liver microsomes 0.25 mg/mL; for Mouse (%) amount of substrate remaining after the reaction: mouse liver microsomes 0.25 mg/mL; for Rat (%) amount of substrate remaining after the reaction: rat liver microsomes 0.25 mg/mL
Description: The stability of liver microsomes due to the compounds prepared according to Examples 1 to 57 was confirmed. Specifically, four types of liver microsomes (human, dog, rat, and mouse, each 0.25 mg/mL), a 0.1 M phosphate buffer solution (pH 7.4), and each of the compounds at a concentration of 1 μM were mixed and pre-cultured at 37° C. for 5 minutes and further cultured at 37° C. for 30 minutes together with an NADPH generation system solution added thereto. Thereafter, the reaction was terminated by adding an acetonitrile solution containing an internal standard material (chloropropamide) and centrifuged for 5 minutes (14,000 rpm, 4° C.), and then a supernatant was injected into an LC-MS/MS system for analysis of substrate drugs to thereby evaluate metabolic stability due to 8 types of compounds.
The amount of the substrate remaining after the reaction was analyzed using the Shimadzu Nexera XR system and TSQ Vantage (Thermo). In an HPLC column, Kinetex XB-C18 (2.1 mm×100 mm, particle size of 2.6 μm; Phenomenex, USA) was used, and mobile phases were (A) distilled water containing 0.1% formic acid and (B) acetonitrile containing 0.1% formic acid. Analyst software (version 1.6.3) and Xcalibur (version 1.6.1) were used for data analysis.

Tau-BiFC cells = assay: Cell viability (stained nuclei count) in Tau-BiFC cells; format: cell-based; conditions: 10 μM compound, 48 hours; Forskolin-only group = 100% cell viability
In short: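 Tau-BiFC cells co-treated 48 h with 30 μM forskolin and compounds (1, 3, 10 μM screen; 0.01–30 μM dose-response). BiFC fluorescence normalized to forskolin-only (100% aggregation) minus untreated gives aggregation inhibition and IC50; viability as Hoechst-stained nuclei count relative to forskolin-only.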

With `Cn1c(=O)n(C)c2cc(NN=C(C#N)C#N)c(Cl)cc21` [Compound 10, (6-chloro-1,3-dimethyl-2-oxo-2,3-dihydro-1H-benzo[d]imidazol-5-yl)carbonohydrazonoyl dicyanide] the “Dog (%) amount of substrate remaining after the reaction” value (“Dog (%) amount of substrate remaining” below) [1] was 98.1%, the “Human (%) amount of substrate remaining after the reaction” value (shortened to “Human (%) amount of substrate remaining”) [1] was over 100% and the “Mouse (%) amount of substrate remaining after the reaction” value (shortened to “Mouse (%) amount of substrate remaining”) [1] was 92.6%. The “Rat (%) amount of substrate remaining after the reaction” value (shortened to “Rat (%) amount of substrate remaining”) [1] was 92.7% and the “Cell viability (% @10 μM)” value (Tau-BiFC cells) was 145.3%.
With `Cc1cc2c(NN=C(C#N)C#N)cccc2c(=O)n1C` [Compound 7, (2,3-dimethyl-1-oxo-1,2-dihydroisoquinolin-5-yl)carbonohydrazonoyl dicyanide] the “Dog (%) amount of substrate remaining” value [1] was 95.7%, the “Human (%) amount of substrate remaining” value [1] was 96% and the “Mouse (%) amount of substrate remaining” value [1] was 93.3%. The “Rat (%) amount of substrate remaining” value [1] was 89.7% and the “Cell viability (% @10 μM)” value (Tau-BiFC cells) was 101.9%.
In the case of `COc1cc(NN=C(C#N)C#N)cc2c1n(C)c(=O)n2C` [Compound 33, (7-methoxy-1,3-dimethyl-2-oxo-2,3-dihydro-1H-benzo[d]imidazol-5-yl)carbonohydrazonoyl dicyanide], the “Human (%) amount of substrate remaining” value [1] is reported as 93.2%, the “Mouse (%) amount of substrate remaining” value [1] is reported as 78.7% and the “Rat (%) amount of substrate remaining” value [1] is reported as 85.5%. The “Cell viability (% @10 μM)” value (Tau-BiFC cells) was 114%.
In the case of `CCn1c(=O)n(C)c2cc(NN=C(C#N)C#N)cnc21` [Compound 48, (3-ethyl-1-methyl-2-oxo-2,3-dihydro-1H-imidazo[4,5-b]pyridin-6-yl)carbonohydrazonoyl dicyanide], the “Human (%) amount of substrate remaining” value [1] is reported as 96.7%, the “Mouse (%) amount of substrate remaining” value [1] is reported as over 100% and the “Rat (%) amount of substrate remaining” value [1] is reported as 96.3%. The “Cell viability (% @10 μM)” value (Tau-BiFC cells) was 143%.
In the case of `CC(C)n1c(=O)oc2ccc(NN=C(C#N)C#N)cc21` [Compound 29, (3-isopropyl-2-oxo-2,3-dihydrobenzo[d]oxazol-5-yl)carbonohydrazonoyl dicyanide], the “Human (%) amount of substrate remaining” value [1] is reported as over 100%, the “Mouse (%) amount of substrate remaining” value [1] is reported as 88.9% and the “Rat (%) amount of substrate remaining” value [1] is reported as 96.4%. The “Cell viability (% @10 μM)” value (Tau-BiFC cells) was 133%.
For `N#CC(C#N)=NNc1ccc2c(c1)oc(=O)n2C(F)F` [Compound 21, (3-(difluoromethyl)-2-oxo-2,3-dihydrobenzo[d]oxazol-6-yl)carbonohydrazonoyl dicyanide], the “Dog (%) amount of substrate remaining” value [1] was 72.1%, the “Human (%) amount of substrate remaining” value [1] was 73.9% and the “Mouse (%) amount of substrate remaining” value [1] was 71.8%. For the same molecule, the “Rat (%) amount of substrate remaining” value [1] was 79.8% and the “Cell viability (% @10 μM)” value (Tau-BiFC cells) was 135%.
In the case of `Cn1c(=O)sc2cc(NN=C(C#N)C#N)ccc21` [Compound 14, (3-methyl-2-oxo-2,3-dihydrobenzo[d]thiazol-6-yl)carbonohydrazonoyl dicyanide], the “Dog (%) amount of substrate remaining” value [1] is reported as 73.3%, the “Human (%) amount of substrate remaining” value [1] is reported as 98.3% and the “Mouse (%) amount of substrate remaining” value [1] is reported as 59.6%. The “Rat (%) amount of substrate remaining” value [1] was 87.1% and the “Cell viability (% @10 μM)” value (Tau-BiFC cells) was 129.1%.
With `Cn1c(=O)n(C)c2ncc(NN=C(C#N)C#N)cc21` [Compound 12, (1,3-dimethyl-2-oxo-2,3-dihydro-1H-imidazo[4,5-b]pyridin-6-yl)carbonohydrazonoyl dicyanide] the “Dog (%) amount of substrate remaining” value [1] was over 100%, the “Human (%) amount of substrate remaining” value [1] was over 100% and the “Mouse (%) amount of substrate remaining” value [1] was over 100%. For the same molecule, the “Rat (%) amount of substrate remaining” value [1] was 94.9% and the “Cell viability (% @10 μM)” value (Tau-BiFC cells) was 145.2%.
For `CCn1c(=O)n(C(C)C)c2ncc(NN=C(C#N)C#N)cc21` [Compound 55, (1-ethyl-3-isopropyl-2-oxo-2,3-dihydro-1H-imidazo[4,5-b]pyridin-6-yl)carbonohydrazonoyl dicyanide], the “Human (%) amount of substrate remaining” value [1] was 85.5%, the “Mouse (%) amount of substrate remaining” value [1] was 87.7% and the “Rat (%) amount of substrate remaining” value [1] was 91.8%. The “Cell viability (% @10 μM)” value (Tau-BiFC cells) was 124%.
For `Cn1ccc2c(NN=C(C#N)C#N)cccc2c1=O` [Compound 5, (2-methyl-1-oxo-1,2-dihydroisoquinolin-5-yl)carbonohydrazonoyl dicyanide], the “Dog (%) amount of substrate remaining” value [1] was over 100%, the “Human (%) amount of substrate remaining” value [1] was 98.1% and the “Mouse (%) amount of substrate remaining” value [1] was 92.9%. The “Rat (%) amount of substrate remaining” value [1] was over 100% and the “Cell viability (% @10 μM)” value (Tau-BiFC cells) was 41.4%.
With `CC(C)n1c(=O)sc2cc(NN=C(C#N)C#N)ccc21` [Compound 18, (3-isopropyl-2-oxo-2,3-dihydrobenzo[d]thiazol-6-yl)carbonohydrazonoyl dicyanide] the “Dog (%) amount of substrate remaining” value [1] was 93.8%, the “Human (%) amount of substrate remaining” value [1] was 85.1% and the “Mouse (%) amount of substrate remaining” value [1] was 71.3%. For the same molecule, the “Rat (%) amount of substrate remaining” value [1] was 70.8% and the “Cell viability (% @10 μM)” value (Tau-BiFC cells) was 110.7%.
In the case of `CC(C)n1c(=O)oc2cc(NN=C(C#N)C#N)ccc21` [Compound 20, (3-isopropyl-2-oxo-2,3-dihydrobenzo[d]oxazol-6-yl)carbonohydrazonoyl dicyanide], the “Dog (%) amount of substrate remaining” value [1] is reported as 95.6%, the “Human (%) amount of substrate remaining” value [1] is reported as 98.1% and the “Mouse (%) amount of substrate remaining” value [1] is reported as 73.1%. For the same molecule, the “Rat (%) amount of substrate remaining” value [1] was 73.3% and the “Cell viability (% @10 μM)” value (Tau-BiFC cells) was 106%.
With `N#CC(C#N)=NNc1ccc2[nH]c(=O)sc2c1` [Compound 13, (2-oxo-2,3-dihydrobenzo[d]thiazol-6-yl)carbonohydrazonoyl dicyanide] the “Dog (%) amount of substrate remaining” value [1] was over 100%, the “Human (%) amount of substrate remaining” value [1] was over 100% and the “Mouse (%) amount of substrate remaining” value [1] was over 100%. For the same molecule, the “Rat (%) amount of substrate remaining” value [1] was over 100% and the “Cell viability (% @10 μM)” value (Tau-BiFC cells) was 115.8%.
In the case of `Cn1c(=O)n(C(F)F)c2cc(NN=C(C#N)C#N)ccc21` [Compound 37, (3-(difluoromethyl)-1-methyl-2-oxo-2,3-dihydro-1H-benzo[d]imidazol-5-yl)carbonohydrazonoyl dicyanide], the “Human (%) amount of substrate remaining” value [1] is reported as 84.9%, the “Mouse (%) amount of substrate remaining” value [1] is reported as 75.7% and the “Rat (%) amount of substrate remaining” value [1] is reported as 58.5%. The “Cell viability (% @10 μM)” value (Tau-BiFC cells) was 121%.
For `Cn1c(=O)n(C)c2c(Cl)cc(NN=C(C#N)C#N)cc21` [Compound 11, (7-chloro-1,3-dimethyl-2-oxo-2,3-dihydro-1H-benzo[d]imidazol-5-yl)carbonohydrazonoyl dicyanide], the “Dog (%) amount of substrate remaining” value [1] was 63.1%, the “Human (%) amount of substrate remaining” value [1] was 96.1% and the “Mouse (%) amount of substrate remaining” value [1] was 63.9%. The “Rat (%) amount of substrate remaining” value [1] was 82.8% and the “Cell viability (% @10 μM)” value (Tau-BiFC cells) was 142.3%.
